# Data taken from patent US11370784B2 (MISSION THERAPEUTICS LIMITED, priority 2016, dated 2022).
# pIC50: −log10 of the molar value.
# Molecular target: USP30 (Homo sapiens (Human), UniProt Q70CQ3)
# Test: USP30 biochemical IC50 assay
# Details: fluorescence polarisation, TAMRA labelled peptide linked to ubiquitin as substrate; enzyme and compound incubated 30 min at room temp; read-out: IC50 range
# Experimental: Reactions were performed in duplicate in black 384 well plates (small volume, Greiner 784076) in a final reaction volume of 21 μl. Either 1 μl of 50% DMSO or diluted compound was added to the plate. USP30 was diluted in reaction buffer (40 mM Tris, pH 7.5, 0.005% Tween 20, 0.5 mg/ml BSA, 5 mM beta-mercaptoethanol) to the equivalent of 0.05 μl/well and 10 μl of diluted USP30 was added to the compound. Enzyme and compound were incubated for 30 min at room temp. Reactions were initiated by the addition of 50 nM of TAMRA labelled peptide linked to ubiquitin via an iso-peptide bond as fluorescence polarisation substrate. Reactions were read immediately after addition of substrate and following a 2 h incubation at room temperature. Readings were performed on a Pherastar Plus (BMG Labtech). λ Excitation 540 nm; λ Emission 590 nm.
# Chain of USP30 (Q70CQ3 57-517): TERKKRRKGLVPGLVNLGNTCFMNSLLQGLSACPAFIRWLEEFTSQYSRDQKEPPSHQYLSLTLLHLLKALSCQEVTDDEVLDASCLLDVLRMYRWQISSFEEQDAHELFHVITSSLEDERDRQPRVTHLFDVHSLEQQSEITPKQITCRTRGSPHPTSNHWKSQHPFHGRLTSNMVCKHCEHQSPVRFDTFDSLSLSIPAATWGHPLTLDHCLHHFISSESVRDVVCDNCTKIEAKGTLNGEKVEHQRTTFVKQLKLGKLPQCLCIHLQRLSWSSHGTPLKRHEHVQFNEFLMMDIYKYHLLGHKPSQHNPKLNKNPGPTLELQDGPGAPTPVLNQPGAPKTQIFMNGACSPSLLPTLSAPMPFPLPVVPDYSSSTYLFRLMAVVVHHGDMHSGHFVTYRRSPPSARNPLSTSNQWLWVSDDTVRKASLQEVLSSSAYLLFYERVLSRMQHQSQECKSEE
row,Structure (SMILES),pIC50
1,"N#CN1CCC[C@](F)(C(=O)Nc2cnc(-c3cccc4cn[nH]c34)cn2)C1 [Example 86, (R)—N-(5-(1H-Indazol-7-yl)pyrazin-2-yl)-1-cyano-3-fluoropiperidine-3-carboxamide]",> 7.00
2,"N#Cc1ccnc(N2CCC(NC(=O)[C@H]3CN(C#N)CCO3)C2)c1 (stereo partly drawn) [Example 66, (2R)-4-Cyano-N-(1-(4-cyanopyridin-2-yl)pyrrolidin-3-yl)morpholine-2-carboxamide]",5.00 to 6.00
3,"CCCOc1cc(NC(=O)C2CCCN(C#N)C2)ccc1-c1ccn[nH]1 (centres unmarked) [Example 36, 1-Cyano-N-(3-propoxy-4-(1H-pyrazol-5-yl)phenyl)piperidine-3-carboxamide]",6.00 to 7.00
4,"N#CN1CCC[C@](F)(C(=O)Nc2cn(-c3cccc(OC(F)(F)F)c3)cn2)C1 (stereo in doubt) [Example 81, 1-Cyano-3-fluoro-N-(1-(3-(trifluoromethoxy)phenyl)-1H-imidazol-4-yl)piperidine-3-carboxamide]",6.00 to 7.00
5,"N#CN1CCOC(C(=O)Nc2ccc(-c3ccccc3)cc2)C1 (centres unmarked) [Example 9, N-([1,1′-Biphenyl]-4-yl)-4-ycanomorpholine-2-carboxamide]",5.00 to 6.00
6,"N#CN1CCC[C@](F)(C(=O)Nc2cn(-c3cccc(C(F)(F)F)c3)cn2)C1 (stereo in doubt) [Example 80, 1-Cyano-3-fluoro-N-(1-(3-(trifluoromethyl)phenyl)-1H-imidazol-4-yl)piperidine-3-carboxamide]",6.00 to 7.00
7,"N#Cc1cccc(-c2ccnc(NC(=O)[C@H]3CCCN(C#N)C3)c2)c1 [Example 57, (S)-1-Cyano-N-(4-(3-cyanophenyl)pyridin-2-yl)piperidine-3-carboxamide]",5.00 to 6.00
8,"N#CN1CCC[C@](F)(C(=O)Nc2ncc(-c3cccc4cn[nH]c34)cn2)C1 [Example 92, (R)—N-(5-(1H-Indazol-7-yl)pyrimidin-2-yl)-1-cyano-3-fluoropiperidine-3-carboxamide]",> 7.00
9,"N#Cc1cccc(-c2ccnc(NC(=O)C3(F)CCCN(C#N)C3)c2)c1 (racemic) [Example 47, 1-Cyano-N-(4-(3-cyanophenyl)pyridin-2-yl)-3-fluoropiperidine-3-carboxamide]",5.00 to 6.00
10,"N#Cc1cccc(-c2cc(NC(=O)C3(F)CCCN(C#N)C3)on2)c1 (centres unmarked) [Example 73, 1-Cyano-N-(3-(3-cyanophenyl)isoxazol-5-yl)-3-fluoropiperidine-3-carboxamide]",6.00 to 7.00
11,"N#CN1CCCC(F)(C(=O)Nc2nc3ccc(-c4cn[nH]c4)cc3s2)C1 (centres unmarked) [Example 50, N-(6-(1H-Pyrazol-4-yl)benzo[d]thiazol-2-yl)-1-cyano-3-fluoropiperidine-3-carboxamide]",5.00 to 6.00
12,"N#CN1CCC[C@](F)(C(=O)Nc2ccc(-c3cccc4[nH]ncc34)cn2)C1 [Example 85, (R)—N-(5-(1H-Indazol-4-yl)pyridin-2-yl)-1-cyano-3-fluoropiperidine-3-carboxamide]",> 7.00
13,"N#CN1CCC[C@](F)(C(=O)Nc2ccc(-c3cccc4cn[nH]c34)nn2)C1 [Example 88, (R)—N-(6-(1H-indazol-7-yl)pyridazin-3-yl)-1-cyano-3-fluoropiperidine-3-carboxamide]",> 7.00
14,"CCCOc1cc(NC(=O)C2CN(C#N)CCO2)ccc1-c1ccn[nH]1 (centres unmarked) [Example 3, 4-Cyano-N-(3-propoxy-4-(1H-pyrazol-5-yl)phenyl)morpholine-2-carboxamide]",6.00 to 7.00
15,"N#Cc1cccc(-c2cc(NC(=O)C3(F)CCCN(C#N)C3)no2)c1 (centres unmarked) [Example 64, 1-Cyano-N-(5-(3-cyanophenyl)isoxazol-3-yl)-3-fluoropiperidine-3-carboxamide]",6.00 to 7.00
16,"N#CN1CCO[C@@H](C(=O)Nc2cc3cc(-c4cn[nH]c4)ccc3cn2)C1 [Example 31, (R)-N-(6-(1H-Pyrazol-4-yl)isoquinolin-3-yl)-4-cyanomorpholine-2-carboxamide]",5.00 to 6.00

# Further lines, results first:
row,pIC50,Structure (SMILES)
1,5.00 to 6.00,"N#CN1CCO[C@H](C(=O)Nc2cc(-c3ccccc3)ccn2)C1 [Example 35, (S)-4-Cyano-N-(4-phenylpyridin-2-yl)morpholine-2-carboxamide]"
2,> 7.00,"N#Cc1cccc(-c2ccnc(NC(=O)[C@H]3CN(C#N)CCO3)c2)c1 [Example 53, (R)-4-Cyano-N-(4-(3-cyanophenyl)pyridin-2-yl)morpholine-2-carboxamide]"
3,5.00 to 6.00,"N#CN1CCO[C@H](C(=O)Nc2ncc(-c3ccccc3)s2)C1 [Example 33, (S)-4-Cyano-N-(5-phenylthiazol-2-yl)morpholine-2-carboxamide]"
4,5.00 to 6.00,"N#CN1CCO[C@@H](C(=O)Nc2ccc(-c3ccn[nH]3)cn2)C1 [Example 29, (R)-N-(5-(1H-Pyrazol-5-yl)pyridin-2-yl)-4-cyanomorpholine-2-carboxamide]"
5,6.00 to 7.00,"N#CN1CCO[C@@H](C(=O)Nc2cc(-c3cccc(C(F)(F)F)c3)no2)C1 [Example 51, (R)-4-Cyano-N-(3-(3-(trifluoromethyl)phenyl)isoxazol-5-yl)morpholine-2-carboxamide]"
6,6.00 to 7.00,"N#CN1CCO[C@@H](C(=O)Nc2ncc(-c3ccccc3)s2)C1 [Example 20, (R)-4-Cyano-N-(5-phenylthiazol-2-yl)morpholine-2-carboxamide]"
7,5.00 to 6.00,"N#Cc1cccc(-c2ccnc(NC(=O)[C@@H]3CN(C#N)CCO3)c2)c1 [Example 54, (S)-4-Cyano-N-(4-(3-cyanophenyl)pyridin-2-yl)morpholine-2-carboxamide]"
8,6.00 to 7.00,"N#CN1CCO[C@@H](C(=O)Nc2cc(-c3ccccc3)ccn2)C1 [Example 1, (R)-4-cyano-N-(4-phenylpyridin-2-yl)morpholine-2-carboxamide]"
9,5.00 to 6.00,"N#CN1CCO[C@@H](C(=O)Nc2cc(-c3cccc4[nH]ncc34)ncn2)C1 [Example 30, (R)-N-(6-(1H-indazol-4-yl)pyrimidin-4-yl)-4-cyanomorpholine-2-carboxamide]"
10,6.00 to 7.00,"N#CN1CCOC(C(=O)Nc2cc(-c3cccc(C(F)(F)F)c3)no2)C1 (racemic) [Example 19, 4-Cyano-N-(3-(3-(trifluoro-methyl)phenyl)isoxazol-5-yl)morpholine-2-carboxamide]"
11,5.00 to 6.00,"COc1cccc(-c2cc(NC(=O)C3CN(C#N)CCO3)on2)c1 (centres unmarked) [Example 10, 4-Cyano-N-(3-(3-methoxyphe-nyl)isoxazol-5-yl)morpholine-2-carboxamide]"
12,5.00 to 6.00,"N#CN1CCCC(C(=O)Nc2cc(-c3ccccc3)[nH]n2)C1 (centres unmarked) [Example 38, 1-Cyano-N-(5-phenyl-1H-pyrazol-3-yl)piperidine-3-carboxamide]"
13,6.00 to 7.00,"N#CN1CCOC(C(=O)Nc2nc3ccc(-c4cn[nH]c4)cc3s2)C1 (centres unmarked) [Example 7, N-(6-(1H-Pyrazol-4-yl)benzo[d]thiazol-2-yl)-4-cyanomorpholine-2-carboxamide]"
14,5.00 to 6.00,"N#CN1CCO[C@@H](C(=O)Nc2cc(-c3cccc(C(N)=O)c3)ncn2)C1 [Example 27, (R)-N-(6-(3-Carbamoylphenyl)-pyrimidin-4-yl)-4-cyanomorpholine-2-carboxamide]"
15,5.00 to 6.00,"CS(=O)(=O)N1CCN(C#N)CC1C(=O)Nc1ncc(-c2ccccc2)s1 (centres unmarked) [Example 71, 4-Cyano-1-(methylsulfonyl)-N-(5-phenylthiazol-2-yl)piperazine-2-carboxamide]"
16,5.00 to 6.00,"N#CN1CCOC(C(=O)Nc2cc(-c3ccccc3)[nH]n2)C1 (centres unmarked) [Example 11, 4-Cyano-N-(5-phenyl-1H-pyrazol-3-yl)morpholine-2-carboxamide]"
